Laboratory results taken from patent US20230295201A1 (Gilead Sciences, Inc., priority 2020, published 2023).
Like-named read-outs stand apart in the source and are kept apart here.

Key:
Assay type in all cases: cell-based
RSV strain A2 = experiment: RSV HEp-2 EC50 (infectious cytopathic cell protection assay); conditions: HEp-2 cells, RSV A2, 4 days, read-out: RSV HEp-2 EC50
How it was run: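 Percent inhibition of RSV-induced cytopathic effect came from remaining cell viability (CellTiter-Glo luminescence) after 4 days at 37° C. Compounds in 3-fold serial dilutions were exposed to an infectious mix of titered A2 virus and HEp-2 cells at 50,000/ml, with 0% and 100% inhibition control standards.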

RSV A2 = experiment: RSV NHBE EC50 (RSV A2 antiviral assay in normal human bronchial epithelial cells); conditions: NHBE cells, RSV A2, 4 days, read-out: RSV NHBE EC50
HRV16 = HRV16 HELA EC50 (cytopathic effect in H1-HeLa cells)
How it was run: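 Read-out is luminescent cell viability (CellTiter-Glo) after 96 h of infection at 33 °C, scaled between uninfected and infected-untreated wells. Before infection with titrated virus, compounds went onto H1-HeLa cells as triplicate 3-fold dilution series.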

DENV2 replicon = experiment: DENV-2 Huh-7 Rep EC50 (replicon luminescence); conditions: read-out: DENV-2 Huh-7 Rep EC50
How it was run: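 EC50 derived from luminescence dose-response, normalised to DMSO-only 0% inhibition wells, after 1.5 h with EnduRen substrate. Compounds were first exposed for 48 h at 37° C to DENV2 replicon Huh-7 cells (5,000/well).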

[1] = human respiratory syncytial virus, HEp-2, 96 h
[2] = human respiratory syncytial virus, NHBE, 96 h
[3] = 96 h, H1-HeLa cells, 33° C., read-out: HRV16 HELA EC50
[4] = Dengue virus, DENV2, Huh-7, 48 h, Huh-7 replicon cells, 48 hours
[5] = human respiratory syncytial virus, 96 h
[6] = H1-HeLa cells, 96 h, 33° C.; read-out: HRV16 HELA EC50
[7] = Dengue virus, DENV2, Huh-7, 48 h

Row | SMILES | EC50 (RSV strain A2; [1]) [µM] | EC50 (RSV A2; [2]) [µM] | EC50 (HRV16; [3]) [µM] | EC50 (DENV2 replicon; [4]) [µM] | EC50 (RSV strain A2; [5]) [µM] | EC50 (RSV A2; [5]) [µM] | EC50 (HRV16; [6]) [µM] | EC50 (DENV2 replicon; [7]) [µM] | other results
1 | C[C@H](NP(=O)(OC[C@@]1(C#N)O[C@@H](c2ccc3c(N)ncnn23)[C@H](O)[C@@H]1O)Oc1ccccc1)C(=O)OCC1CCN(CC(F)(F)F)CC1 (stereo partly drawn) [Example 31, (1-(2,2,2-trifluoroethyl)piperidin-4-yl)methyl ((((2R,3S,4R,5S)-5-(4-aminopyrrolo[2,1-f][1,2,4]triazin-7-yl)-2-cyano3,4-dihydroxytetrahydrofuran-2-yl)methoxy)(phenoxy)phosphoryl)alaninate] | 0.334 | 0.258 | 2.5 | 96 | – | – | – | – | –
2 | CCN1CCC(OC(=O)[C@H](C)NP(=O)(OC[C@@]2(C#N)O[C@@H](c3ccc4c(N)ncnn34)[C@H](O)[C@@H]2O)Oc2ccccc2)C(F)(F)C1 (stereo partly drawn) [Example 32, 1-ethyl-3,3-difluoropiperidin-4-yl ((((2R,3S,4R,5S)-5-(4-aminopyrrolo[2,1-f][1,2,4]triazin-7-yl)-2-cyano-3,4-dihydroxytetrahydrofuran-2-yl)methoxy)(phenoxy)phosphoryl)-L-alaninate] | 3.44 | > 3.12 | 9.95 | > 100 | – | – | – | – | –
3 | C[C@H](NP(=O)(OC[C@@]1(C#N)O[C@@H](c2ccc3c(N)ncnn23)[C@H](O)[C@@H]1O)Oc1ccccc1)C(=O)O[C@H]1CC[C@H](N)CC1 (stereo partly drawn) [Example 33, (1r,4S)-4-aminocyclohexyl ((((2R,3S,4R,5S)-5-(4-aminopyrrolo[2,1-f][1,2,4]triazin-7-yl)-2-cyano-3,4-dihydroxytetrahydrofuran-2-yl)methoxy)(phenoxy)phosphoryl)-L-alaninate] | 1.91 | 2.68 | 27 | > 50 | – | – | – | – | –
4 | CC(C)OC(=O)[C@H](C)NP(=O)(N[C@@H](C)C(=O)OC(C)C)OC[C@@]1(C#N)O[C@@H](c2ccc3c(N)ncnn23)[C@H](O)[C@@H]1O [Example 34] | – | – | – | – | 14 | 2.84 | > 50 | > 50 | –
5 | CCOC(=O)[C@H](C)NP(=O)(N[C@@H](C)C(=O)OCC)OC[C@@]1(C#N)O[C@@H](c2ccc3c(N)ncnn23)[C@H](O)[C@@H]1O [Example 35, ((2R,3S,4R,5S)-5-(4-aminopyrrolo[2,1-f][1,2,4]triazin-7-yl)-2-cyano-3,4-dihydroxytetrahydrofuran-2-yl)methyl bis-ethyl L-alaninate phosphate] | – | – | – | – | 4.07 | 1.31 | 29.6 | > 50 | –
6 | C[C@H](NP(=O)(N[C@@H](C)C(=O)OCC1CCC1)OC[C@@]1(C#N)O[C@@H](c2ccc3c(N)ncnn23)[C@H](O)[C@@H]1O)C(=O)OCC1CCC1 [Example 36, (2R,3S,4R,5S)-5-(4-aminopyrrolo[2,1-f][1,2,4]triazin-7-yl)-2-cyano-3,4-dihydroxytetrahydrofuran-2-yl)methyl bis-cyclobutylmethyl L-alaninate phosphate] | – | – | – | – | 1.44 | 0.312 | 10.7 | > 50 | –
7 | COC(=O)[C@H](C)NP(=O)(N[C@@H](C)C(=O)OC)OC[C@@]1(C#N)O[C@@H](c2ccc3c(N)ncnn23)[C@H](O)[C@@H]1O [Example 38] | – | – | – | – | 3.51 | 3.98 | 20.9 | > 50 | –
8 | COC(=O)[C@H](C)NP(=O)(OC[C@@]1(C#N)O[C@@H](c2ccc3c(N)ncnn23)[C@H](O)[C@@H]1O)Oc1ccccc1 (stereo partly drawn) [Example 39, methyl ((((2R,3S,4R,5S)-5-(4-aminopyrrolo[2,1-f][1,2,4]triazin-7-yl)-2-cyano-3,4-dihydroxytetrahydrofuran-2-yl)methoxy)(phenoxy)phosphoryl)-L-alaninate] | 0.166 | 0.569 | 1.08 | > 50 | – | – | – | – | –
9 | COCCOP(=O)(N[C@@H](C)C(=O)OC(C)C)OC[C@@]1(C#N)O[C@@H](c2ccc3c(N)ncnn23)[C@H](O)[C@@H]1O (stereo partly drawn) [Example 41, isopropyl ((((2R,3S,4R,5S)-5-(4-aminopyrrolo[2,1-f][1,2,4]triazin-7-yl)-2-cyano-3,4-dihydroxytetrahydrofuran-2-yl)methoxy)(2-methoxyethoxy)phosphoryl)-L-alaninate] | – | – | – | – | > 50 | ≥ 5 | > 50 | > 50 | –
10 | CC(C)OC(=O)[C@H](C)NP(=O)(OCCS(C)(=O)=O)OC[C@@]1(C#N)O[C@@H](c2ccc3c(N)ncnn23)[C@H](O)[C@@H]1O (stereo partly drawn) [Example 42, isopropyl ((((2R,3S,4R,5S)-5-(4-aminopyrrolo[2,1-f][1,2,4]triazin-7-yl)-2-cyano-3,4-dihydroxytetrahydrofuran-2-yl)methoxy)(2-(methylsulfonyl)ethoxy)phosphoryl)-L-alaninate] | – | – | – | – | 25.4 | ≥ 5 | > 50 | 39.2 | –
11 | CCCOC(=O)[C@H](C)N[P@](=O)(OC[C@@]1(C#N)O[C@@H](c2ccc3c(N)ncnn23)[C@H](O)[C@@H]1O)Oc1ccccc1 [Example 45, propyl ((S)-(((2R,3S,4R,5S)-5-(4-aminopyrrolo[2,1-f][1,2,4]triazin-7-yl)-2-cyano-3,4-dihydroxytetrahydrofuran-2-yl)methoxy)(phenoxy)phosphoryl)-L-alaninate] | 0.055 | 0.248 | 0.375 | 9.66 | – | – | – | – | –
12 | C[C@H](NP(=O)(OC[C@@]1(C#N)O[C@@H](c2ccc3c(N)ncnn23)[C@H](O)[C@@H]1O)Oc1ccccc1)C(=O)OCC1COC1 (stereo partly drawn) [Example 49, oxetan-3-ylmethyl ((((2R,3S,4R,5S)-5-(4-aminopyrrolo[2,1-f][1,2,4]triazin-7-yl)-2-cyano-3,4-dihydroxytetrahydrofuran-2-yl)methoxy)(phenoxy)phosphoryl)-L-alaninate] | 1.08 | 2.43 | 8.72 | > 50 | – | – | – | – | –
13 | C[C@H](NP(=O)(OC[C@@]1(C#N)O[C@@H](c2ccc3c(N)ncnn23)[C@H](O)[C@@H]1O)Oc1ccccc1)C(=O)OC1CCC1 (stereo partly drawn) [Example 51] | – | – | – | – | – | – | 0.357 | – | EC50 (RSV strain A2): 0.09 µM; EC50 (RSV A2): > 1.24 µM; EC50 (DENV2 replicon; Huh-7 replicon cells, 48 hours): 9.21 µM
14 | COCCOc1ccc(OP(=O)(N[C@@H](C)C(=O)OC(C)C)OC[C@@]2(C#N)O[C@@H](c3ccc4c(N)ncnn34)[C@H](O)[C@@H]2O)cc1 (stereo partly drawn) [Example 53] | 2.36 | – | 15.5 | > 50 | – | – | – | – | EC50 (RSV A2; human respiratory syncytial virus, NHBE, in Homo sapiens, 96 h): ≥ 5 µM
15 | C[C@H](NP(=O)(OC[C@@]1(C#N)O[C@@H](c2ccc3c(N)ncnn23)[C@H](O)[C@@H]1O)Oc1ccccc1)C(=O)OC1CCOCC1 (stereo partly drawn) [Example 55, tetrahydro-2H-pyran-4-yl ((((2R,3S,4R,5S)-5-(4-aminopyrrolo[2,1-f][1,2,4]triazin-7-yl)-2-cyano-3,4-dihydroxytetrahydrofuran-2-yl)methoxy)(phenoxy)phosphoryl)-L-alaninate] | 0.57 | 4.29 | 6.91 | > 50 | – | – | – | – | –
16 | CCC(CC)COC(=O)[C@H](CCCCNC(=O)OCc1ccccc1)NP(=O)(OC[C@@]1(C#N)O[C@@H](c2ccc3c(N)ncnn23)[C@H](O)[C@@H]1O)Oc1ccccc1 (stereo partly drawn) [Example 79, 2-ethylbutyl N2-((((2R,3S,4R,5S)-5-(4-aminopyrrolo[2,1-f][1,2,4]triazin-7-yl)-2-cyano-3,4-dihydroxytetrahydrofuran-2-yl)methoxy)(phenoxy)phosphoryl)-N6-((benzyloxy)carbonyl)-L-lysinate] | > 50 | > 5 | > 34.8 | 40.2 | – | – | – | – | –
17 | CC(C)OC(=O)[C@H](Cc1ccccc1)NP(=O)(OC[C@@]1(C#N)O[C@@H](c2ccc3c(N)ncnn23)[C@H](O)[C@@H]1O)Oc1ccccc1 (stereo partly drawn) [Example 80, (2S)-isopropyl 2-(((((2R,3S,4R,5S)-5-(4-aminopyrrolo[2,1-f][1,2,4]triazin-7-yl)-2-cyano-3,4-dihydroxytetrahydrofuran-2-yl)methoxy)(phenoxy)phosphoryl)amino)-3-phenylpropanoate] | 3.83 | 4.7 | 8.96 | > 50 | – | – | – | – | –
18 | CCC(CC)COC(=O)[C@H](Cc1ccccc1)NP(=O)(OC[C@@]1(C#N)O[C@@H](c2ccc3c(N)ncnn23)[C@H](O)[C@@H]1O)Oc1ccccc1 (stereo partly drawn) [Example 81, (2S)-2-ethylbutyl 2-(((((2R,3S,4R,5S)-5-(4-aminopyrrolo[2,1-f][1,2,4]triazin-7-yl)-2-cyano-3,4-dihydroxytetrahydrofuran-2-yl)methoxy)(phenoxy)phosphoryl)amino)-3-phenylpropanoate] | 3.57 | 2.65 | 3.37 | 38.9 | – | – | – | – | –
